Source: PubChem BioAssay (NCI)
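All cell lines were grown in 96-well plates and treated with compound for 48 hours. Abbreviation: GI50, concentration required for 50% inhibition of growth. TGI marks complete inhibition of growth.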

Experiments:
Experiment in all cases: NCI anticancer screen, dose series, 48 h
786-0 renal = test system: 786-0 renal
A498 renal = test system: A498 renal
A549 NSCLC = test system: A549 NSCLC
ACHN renal = test system: ACHN renal
BT-549 breast = test system: BT-549 breast
CAKI-1 renal = test system: CAKI-1 renal
CCRF-CEM leukemia = test system: CCRF-CEM leukemia
COLO 205 colon = test system: COLO 205 colon
DU-145 prostate = test system: DU-145 prostate
HCC-2998 colon = test system: HCC-2998 colon
HCT-116 colon = test system: HCT-116 colon
HCT-15 colon = test system: HCT-15 colon
HL-60(TB) leukemia = test system: HL-60(TB) leukemia
HOP-62 NSCLC = test system: HOP-62 NSCLC
HOP-92 NSCLC = test system: HOP-92 NSCLC
HS 578T breast = test system: HS 578T breast
HT29 colon = test system: HT29 colon
IGROV1 ovarian = test system: IGROV1 ovarian
K-562 leukemia = test system: K-562 leukemia
KM12 colon = test system: KM12 colon
LOX IMVI melanoma = test system: LOX IMVI melanoma
M14 melanoma = test system: M14 melanoma
MALME-3M melanoma = test system: MALME-3M melanoma
MCF7 breast = test system: MCF7 breast
MDA-MB-231 breast = test system: MDA-MB-231 breast
MDA-MB-435 = test system: MDA-MB-435
MOLT-4 leukemia = test system: MOLT-4 leukemia
NCI-H226 lung = test system: NCI-H226 lung
NCI-H23 lung = test system: NCI-H23 lung
NCI-H460 lung = test system: NCI-H460 lung
NCI-H522 lung = test system: NCI-H522 lung
NCI/ADR-RES ovarian = test system: NCI/ADR-RES ovarian
OVCAR-3 ovarian = test system: OVCAR-3 ovarian
OVCAR-4 ovarian = test system: OVCAR-4 ovarian
OVCAR-5 ovarian = test system: OVCAR-5 ovarian
OVCAR-8 ovarian = test system: OVCAR-8 ovarian
PC-3 prostate = test system: PC-3 prostate
RPMI-8226 leukemia = test system: RPMI-8226 leukemia
SF-268 CNS = test system: SF-268 CNS
SF-295 CNS = test system: SF-295 CNS
SF-539 CNS = test system: SF-539 CNS
SK-MEL-2 melanoma = test system: SK-MEL-2 melanoma
SK-MEL-28 melanoma = test system: SK-MEL-28 melanoma
SK-MEL-5 melanoma = test system: SK-MEL-5 melanoma
SK-OV-3 ovarian = test system: SK-OV-3 ovarian
SN12C renal = test system: SN12C renal
SNB-19 CNS = test system: SNB-19 CNS
SNB-75 CNS = test system: SNB-75 CNS
SR leukemia = test system: SR leukemia
SW-620 colon = test system: SW-620 colon
T-47D breast = test system: T-47D breast
TK-10 renal = test system: TK-10 renal
U251 CNS = test system: U251 CNS
UACC-257 melanoma = test system: UACC-257 melanoma
UACC-62 melanoma = test system: UACC-62 melanoma
UO-31 renal = test system: UO-31 renal

Compound: Cc1cc(Nc2cccc(F)c2)nc(NCc2ccccc2)n1
- GI50 (786-0 renal): 6.62 µM
- TGI (786-0 renal): 22.1 µM
- GI50 (A498 renal): 2.75 µM
- TGI (A498 renal): 10.7 µM
- GI50 (A549 NSCLC): 6.44 µM
- TGI (A549 NSCLC): 22.8 µM
- GI50 (ACHN renal): 7.76 µM
- TGI (ACHN renal): 26.1 µM
- GI50 (BT-549 breast): 7.45 µM
- TGI (BT-549 breast): 23.2 µM
- GI50 (CAKI-1 renal): 3.94 µM
- TGI (CAKI-1 renal): 17.8 µM
- GI50 (CCRF-CEM leukemia): 4.75 µM
- TGI (CCRF-CEM leukemia): 22.1 µM
- GI50 (COLO 205 colon): 1.73 µM
- TGI (COLO 205 colon): 3.31 µM
- GI50 (DU-145 prostate): 11.3 µM
- TGI (DU-145 prostate): 23.9 µM
- GI50 (HCC-2998 colon): 2 µM
- TGI (HCC-2998 colon): 4.19 µM
- GI50 (HCT-116 colon): 3.34 µM
- TGI (HCT-116 colon): 18.2 µM
- GI50 (HCT-15 colon): 4.98 µM
- TGI (HCT-15 colon): 24.6 µM
- GI50 (HL-60(TB) leukemia): 3.91 µM
- TGI (HL-60(TB) leukemia): 17.2 µM
- GI50 (HOP-62 NSCLC): 10.2 µM
- TGI (HOP-62 NSCLC): 23.4 µM
- GI50 (HOP-92 NSCLC): 1.81 µM
- TGI (HOP-92 NSCLC): 11 µM
- GI50 (HS 578T breast): 7.26 µM
- TGI (HS 578T breast): 32.7 µM
- GI50 (HT29 colon): 3.7 µM
- TGI (HT29 colon): 13.4 µM
- GI50 (IGROV1 ovarian): 5.44 µM
- TGI (IGROV1 ovarian): 24.6 µM
- GI50 (K-562 leukemia): 2.89 µM
- TGI (K-562 leukemia): 12.9 µM
- GI50 (KM12 colon): 5.46 µM
- TGI (KM12 colon): 19.7 µM
- GI50 (LOX IMVI melanoma): 7.12 µM
- TGI (LOX IMVI melanoma): 28.7 µM
- GI50 (M14 melanoma): 13.3 µM
- TGI (M14 melanoma): 30.8 µM
- GI50 (MALME-3M melanoma): 3.8 µM
- TGI (MALME-3M melanoma): 17.7 µM
- GI50 (MCF7 breast): 3.14 µM
- TGI (MCF7 breast): 15.7 µM
- GI50 (MDA-MB-231 breast): 3.28 µM
- TGI (MDA-MB-231 breast): 14.1 µM
- GI50 (MDA-MB-435): 5.72 µM
- TGI (MDA-MB-435): 20 µM
- GI50 (MOLT-4 leukemia): 4.89 µM
- TGI (MOLT-4 leukemia): 19.8 µM
- GI50 (NCI-H226 lung): 11.8 µM
- TGI (NCI-H226 lung): 35.2 µM
- GI50 (NCI-H23 lung): 4.96 µM
- TGI (NCI-H23 lung): 21.9 µM
- GI50 (NCI-H460 lung): 3.84 µM
- TGI (NCI-H460 lung): 15.8 µM
- GI50 (NCI-H522 lung): 8.45 µM
- TGI (NCI-H522 lung): 24.7 µM
- GI50 (NCI/ADR-RES ovarian): 6.38 µM
- TGI (NCI/ADR-RES ovarian): 38 µM
- GI50 (OVCAR-3 ovarian): 8.65 µM
- TGI (OVCAR-3 ovarian): 21.7 µM
- GI50 (OVCAR-4 ovarian): 4.42 µM
- TGI (OVCAR-4 ovarian): 37.6 µM
- GI50 (OVCAR-5 ovarian): 12.4 µM
- TGI (OVCAR-5 ovarian): 29.9 µM
- GI50 (OVCAR-8 ovarian): 3.9 µM
- TGI (OVCAR-8 ovarian): 18.2 µM
- GI50 (PC-3 prostate): 4.34 µM
- TGI (PC-3 prostate): 18.7 µM
- GI50 (RPMI-8226 leukemia): 2.03 µM
- TGI (RPMI-8226 leukemia): 7.97 µM
- GI50 (SF-268 CNS): 11.3 µM
- TGI (SF-268 CNS): 28.6 µM
- GI50 (SF-295 CNS): 6.57 µM
- TGI (SF-295 CNS): 27.1 µM
- GI50 (SF-539 CNS): 10.8 µM
- TGI (SF-539 CNS): 24.7 µM
- GI50 (SK-MEL-2 melanoma): 11 µM
- TGI (SK-MEL-2 melanoma): 25.4 µM
- GI50 (SK-MEL-28 melanoma): 7.21 µM
- TGI (SK-MEL-28 melanoma): 20.6 µM
- GI50 (SK-MEL-5 melanoma): 2.73 µM
- TGI (SK-MEL-5 melanoma): 10.1 µM
- GI50 (SK-OV-3 ovarian): 10.6 µM
- TGI (SK-OV-3 ovarian): 22.5 µM
- GI50 (SN12C renal): 6.12 µM
- TGI (SN12C renal): 23 µM
- GI50 (SNB-19 CNS): 11.1 µM
- TGI (SNB-19 CNS): 26.8 µM
- GI50 (SNB-75 CNS): 0.799 µM
- TGI (SNB-75 CNS): 13 µM
- GI50 (SR leukemia): 3.28 µM
- TGI (SR leukemia): 10.1 µM
- GI50 (SW-620 colon): 6.62 µM
- TGI (SW-620 colon): 23.7 µM
- GI50 (T-47D breast): 3.71 µM
- TGI (T-47D breast): 18.5 µM
- GI50 (TK-10 renal): 8.29 µM
- TGI (TK-10 renal): 21.4 µM
- GI50 (U251 CNS): 3.32 µM
- TGI (U251 CNS): 8.34 µM
- GI50 (UACC-257 melanoma): 3.95 µM
- TGI (UACC-257 melanoma): 15.5 µM
- GI50 (UACC-62 melanoma): 5.61 µM
- TGI (UACC-62 melanoma): 20.2 µM
- GI50 (UO-31 renal): 3.26 µM
- TGI (UO-31 renal): 19.3 µM
